From patent publication US11319299B2, “Substituted carboxamides as inhibitors of WDR5 protein-protein binding” (PROPELLON THERAPEUTICS INC., priority 2016, dated 2022)

target: WDR5 (Homo sapiens (Human), UniProt P61964); test: Surface Plasmon Resonance (SPR) assay, KD and residence time; assay type: binding; conditions: surface plasmon resonance (SPR); read-out: WDR5 binding affinity (KD)

Row | Compound | Kd
1 | C[C@@H]1CN(c2cc(F)c(-c3cccc4scnc34)cc2NC(=O)c2c[nH]c(=O)cc2C(F)(F)F)C[C@H](C)N1C [Example 677, N-[5-(1,3-benzothiazol-4-yl)-4-fluoro-2-[(3R,5S)-3,4,5-trimethylpiperazin-1-yl]phenyl]-6-oxo-4-(trifluoromethyl)-1H-pyridine-3-carboxamide] | 5.29 nM
2 | C[C@@H]1CN(c2cc(F)c(-c3ccc4scnc4c3)cc2NC(=O)c2c[nH]c(=O)cc2C(F)(F)F)C[C@H](C)N1C [Example 678, N-[5-(1,3-benzothiazol-5-yl)-4-fluoro-2-[(3R,5S)-3,4,5-trimethylpiperazin-1-yl]phenyl]-6-oxo-4-(trifluoromethyl)-1H-pyridine-3-carboxamide] | 3.26 nM
3 | C[C@@H]1CN(c2cc(F)c(-c3ccc4ncsc4c3)cc2NC(=O)c2c[nH]c(=O)cc2C(F)(F)F)C[C@H](C)N1C [Example 679, N-[5-(1,3-benzothiazol-6-yl)-4-fluoro-2-[(3R,5S)-3,4,5-trimethylpiperazin-1-yl]phenyl]-6-oxo-4-(trifluoromethyl)-1H-pyridine-3-carboxamide] | 2.97 nM
4 | C[C@@H]1CN(c2cc(F)c(-c3ccc4c(c3)ncn4C)cc2NC(=O)c2cn(C)c(=O)cc2C(F)F)C[C@H](C)N1C [Example 680, 4-(difluoromethyl)-N-[4-fluoro-5-(1-methylbenzimidazol-5-yl)-2-[(3R,5S)-3,4,5-trimethylpiperazin-1-yl]phenyl]-1-methyl-6-oxopyridine-3-carboxamide] | 58.2 nM
5 | C[C@@H]1CN(c2cc(F)c(-c3ccc4ncn(C)c4c3)cc2NC(=O)c2cn(C)c(=O)cc2C(F)F)C[C@H](C)N1C [Example 681, 4-(difluoromethyl)-N-[4-fluoro-5-(3-methylbenzimidazol-5-yl)-2-[(3R,5S)-3,4,5-trimethylpiperazin-1-yl]phenyl]-1-methyl-6-oxopyridine-3-carboxamide] | 39.3 nM
6 | C[C@@H]1CN(c2cc(F)c(-c3cccc4scnc34)cc2NC(=O)c2cn(C)c(=O)cc2C(F)F)C[C@H](C)N1C [Example 682, N-[5-(1,3-benzothiazol-4-yl)-4-fluoro-2-[(3R,5S)-3,4,5-trimethylpiperazin-1-yl]phenyl]-4-(difluoromethyl)-1-methyl-6-oxopyridine-3-carboxamide] | 20.4 nM
7 | C[C@@H]1CN(c2cc(F)c(-c3ccc4scnc4c3)cc2NC(=O)c2cn(C)c(=O)cc2C(F)F)C[C@H](C)N1C [Example 683, N-[5-(1,3-benzothiazol-5-yl)-4-fluoro-2-[(3R,5S)-3,4,5-trimethylpiperazin-1-yl]phenyl]-4-(difluoromethyl)-1-methyl-6-oxopyridine-3-carboxamide] | 12.3 nM
8 | C[C@@H]1CN(c2cc(F)c(-c3ccc4ncsc4c3)cc2NC(=O)c2cn(C)c(=O)cc2C(F)F)C[C@H](C)N1C [Example 684, N-[5-(1,3-benzothiazol-6-yl)-4-fluoro-2-[(3R,5S)-3,4,5-trimethylpiperazin-1-yl]phenyl]-4-(difluoromethyl)-1-methyl-6-oxopyridine-3-carboxamide] | 7.82 nM
9 | C[C@@H]1CN(c2cc(F)c(C3=CCN(c4ncc(C#N)s4)CC3)cc2NC(=O)c2c[nH]c(=O)cc2C(F)F)C[C@H](C)N1C [Example 685, N-[5-[1-(5-cyano-1,3-thiazol-2-yl)-3,6-dihydro-2H-pyridin-4-yl]-4-fluoro-2-[(3R,5S)-3,4,5-trimethylpiperazin-1-yl]phenyl]-4-(difluoromethyl)-6-oxo-1H-pyridine-3-carboxamide] | 2.23 nM
10 | C[C@@H]1CN(c2cc(F)c(C3=CCCN(c4ncc(C#N)s4)C3)cc2NC(=O)c2c[nH]c(=O)cc2C(F)F)C[C@H](C)N1C [Example 687, N-[5-[1-(5-cyano-1,3-thiazol-2-yl)-3,6-dihydro-2H-pyridin-5-yl]-4-fluoro-2-[(3R,5S)-3,4,5-trimethylpiperazin-1-yl]phenyl]-4-(difluoromethyl)-6-oxo-1H-pyridine-3-carboxamide] | 1.84 nM
11 | C[C@@H]1CN(c2cc(F)c(-c3ccnc(N4CCOCC4)n3)cc2NC(=O)c2c[nH]c(=O)cc2C(F)F)C[C@H](C)N1C [Example 692, 4-(difluoromethyl)-N-[4-fluoro-5-(2-morpholin-4-ylpyrimidin-4-yl)-2-[(3R,5S)-3,4,5-trimethylpiperazin-1-yl]phenyl]-6-oxo-1H-pyridine-3-carboxamide] | 2.4 nM
12 | C[C@@H]1CN(c2cc(F)c(-c3ccnc(N4CCOCC4)n3)cc2NC(=O)c2cn(C)c(=O)cc2C(F)(F)F)C[C@H](C)N1C [Example 693, N-[4-fluoro-5-(2-morpholin-4-ylpyrimidin-4-yl)-2-[(3R,5S)-3,4,5-trimethylpiperazin-1-yl]phenyl]-1-methyl-6-oxo-4-(trifluoromethyl)pyridine-3-carboxamide] | 4.79 nM
13 | C[C@@H]1CN(c2cc(F)c(-c3ccnc(OC4CCOCC4)n3)cc2NC(=O)c2c[nH]c(=O)cc2C(F)(F)F)C[C@H](C)N1C [Example 695, N-[4-fluoro-5-[2-(oxan-4-yloxy)pyrimidin-4-yl]-2-[(3R,5S)-3,4,5-trimethylpiperazin-1-yl]phenyl]-6-oxo-4-(trifluoromethyl)-1H-pyridine-3-carboxamide] | 2.53 nM
14 | C[C@@H]1CN(c2cc(F)c(C3=CCN(c4ncc(C#N)s4)CC3)cc2NC(=O)c2c[nH]c(=O)cc2C(F)(F)F)C[C@H](C)N1C [Example 696, N-[5-[1-(5-cyano-1,3-thiazol-2-yl)-3,6-dihydro-2H-pyridin-4-yl]-4-fluoro-2-[(3R,5S)-3,4,5-trimethylpiperazin-1-yl]phenyl]-6-oxo-4-(trifluoromethyl)-1H-pyridine-3-carboxamide] | 1.31 nM
15 | C[C@@H]1CN(c2cc(F)c(C3=CCCN(C(=O)OC4(C)CCC4)CC3)cc2NC(=O)c2c[nH]c(=O)cc2C(F)(F)F)C[C@H](C)N1C [Example 699, (1-methylcyclobutyl) 4-[2-fluoro-5-[[6-oxo-4-(trifluoromethyl)-1H-pyridine-3-carbonyl]amino]-4-[(3R,5S)-3,4,5-trimethylpiperazin-1-yl]phenyl]-2,3,6,7-tetrahydroazepine-1-carboxylate] | 3.7 nM
16 | C[C@@H]1CN(c2cc(F)c(C3=CCCN(c4ncc(C#N)s4)CC3)cc2NC(=O)c2c[nH]c(=O)cc2C(F)(F)F)C[C@H](C)N1C [Example 700, N-[5-[1-(5-cyano-1,3-thiazol-2-yl)-2,3,6,7-tetrahydroazepin-4-yl]-4-fluoro-2-[(3R,5S)-3,4,5-trimethylpiperazin-1-yl]phenyl]-6-oxo-4-(trifluoromethyl)-1H-pyridine-3-carboxamide] | 7.31 nM
17 | C[C@@H]1CN(c2cc(F)c(C3=CCCN(c4ccnc(C#N)n4)C3)cc2NC(=O)c2c[nH]c(=O)cc2C(F)(F)F)C[C@H](C)N1C [Example 701, N-[5-[1-(2-cyanopyrimidin-4-yl)-3,6-dihydro-2H-pyridin-5-yl]-4-fluoro-2-[(3R,5S)-3,4,5-trimethylpiperazin-1-yl]phenyl]-6-oxo-4-(trifluoromethyl)-1H-pyridine-3-carboxamide] | 1.73 nM
18 | C[C@@H]1CN(c2cc(F)c(C3=CCN(C(=O)OC4CC(F)(F)C4)CC3)cc2NC(=O)c2c[nH]c(=O)cc2C(F)F)C[C@H](C)N1C [Example 702, (3,3-difluorocyclobutyl) 4-[5-[[4-(difluoromethyl)-6-oxo-1H-pyridine-3-carbonyl]amino]-2-fluoro-4-[(3R,5S)-3,4,5-trimethylpiperazin-1-yl]phenyl]-3,6-dihydro-2H-pyridine-1-carboxylate] | 3.47 nM
19 | C[C@@H]1CN(c2cc(F)c(C3=CCCN(C(=O)OC4CC(F)(F)C4)C3)cc2NC(=O)c2c[nH]c(=O)cc2C(F)F)C[C@H](C)N1C [Example 704, (3,3-difluorocyclobutyl) 5-[5-[[4-(difluoromethyl)-6-oxo-1H-pyridine-3-carbonyl]amino]-2-fluoro-4-[(3R,5S)-3,4,5-trimethylpiperazin-1-yl]phenyl]-3,6-dihydro-2H-pyridine-1-carboxylate] | 2.72 nM
20 | C[C@@H]1CN(c2cc(F)c(C3=CCN(c4ccnc(C#N)n4)CC3)cc2NC(=O)c2c[nH]c(=O)cc2C(F)(F)F)C[C@H](C)N1C [Example 709, N-[5-[1-(2-cyanopyrimidin-4-yl)-3,6-dihydro-2H-pyridin-4-yl]-4-fluoro-2-[(3R,5S)-3,4,5-trimethylpiperazin-1-yl]phenyl]-6-oxo-4-(trifluoromethyl)-1H-pyridine-3-carboxamide] | 0.72 nM
21 | C[C@@H]1CN(c2cc(F)c(-c3cc(F)c(C(=O)NC4CCCCC4)c(F)c3)cc2NC(=O)c2c[nH]c(=O)cc2C(F)(F)F)C[C@H](C)N1C [Example 710, N-[5-[4-(cyclohexylcarbamoyl)-3,5-difluorophenyl]-4-fluoro-2-[(3R,5S)-3,4,5-trimethylpiperazin-1-yl]phenyl]-6-oxo-4-(trifluoromethyl)-1H-pyridine-3-carboxamide] | 2.03 nM
22 | C[C@@H]1CN(c2cc(F)c(-c3cc(F)c(C(=O)NC4CCCCC4(C)C)c(F)c3)cc2NC(=O)c2c[nH]c(=O)cc2C(F)(F)F)C[C@H](C)N1C (stereo partly drawn) [Example 711, N-[5-[4-[(2,2-dimethylcyclohexyl)carbamoyl]-3,5-difluorophenyl]-4-fluoro-2-[(3R,5S)-3,4,5-trimethylpiperazin-1-yl]phenyl]-6-oxo-4-(trifluoromethyl)-1H-pyridine-3-carboxamide] | 3.17 nM
23 | C[C@@H]1CN(c2cc(F)c(-c3cc(F)c(C(=O)NCC4CC4)c(F)c3)cc2NC(=O)c2c[nH]c(=O)cc2C(F)(F)F)C[C@H](C)N1C [Example 712, N-[5-[4-(cyclopropylmethylcarbamoyl)-3,5-difluorophenyl]-4-fluoro-2-[(3R,5S)-3,4,5-trimethylpiperazin-1-yl]phenyl]-6-oxo-4-(trifluoromethyl)-1H-pyridine-3-carboxamide] | 2.23 nM
24 | C[C@@H]1CN(c2cc(F)c(-c3csc(CN4CCOCC4)n3)cc2NC(=O)c2c[nH]c(=O)cc2C(F)(F)F)C[C@H](C)N1C [Example 713, N-[4-fluoro-5-[2-(morpholin-4-ylmethyl)-1,3-thiazol-4-yl]-2-[(3R,5S)-3,4,5-trimethylpiperazin-1-yl]phenyl]-6-oxo-4-(trifluoromethyl)-1H-pyridine-3-carboxamide] | 2.59 nM
